# Source: ChEMBL document CHEMBL4342467, “Discovery of a Novel Dual-Target Inhibitor of ERK1 and ERK5 That Induces Regulated Cell Death to Overcome Compensatory Mechanism in Specific Tumor Types” (J Med Chem, 2020)
# pIC50: −log10 of the molar value.
# How the values were obtained:
# [1] = molecular target: Mitogen-activated protein kinase 3 (Homo sapiens) (UniProt P27361); assay: Inhibition of ERK1 (unknown origin) at 1 uM by Z'-Lyte assay relative to control
# [2] = molecular target: Mitogen-activated protein kinase 1 (Homo sapiens) (UniProt P28482); assay: Inhibition of ERK2 (unknown origin) at 1 uM by Z'-Lyte assay relative to control
# [3] = molecular target: Mitogen-activated protein kinase 7 (Homo sapiens) (UniProt Q13164); assay: Inhibition of ERK5 (unknown origin) at 1 uM by Z'-Lyte assay relative to control
# HL-60 = assay: Antiproliferative activity against human HL60 cells assessed as reduction in cell viability measured after 24 hrs; type: functional, cell-based; conditions: HL-60, 24 h
# MKN-74 = assay: Antiproliferative activity against human MKN74 cells assessed as reduction in cell viability measured after 24 hrs; type: functional, cell-based; conditions: MKN-74, 24 h
# HeLa = assay: Antiproliferative activity against human HeLa cells assessed as reduction in cell viability measured after 24 hrs; type: functional, cell-based
# Sequence of Mitogen-activated protein kinase 1 (Homo sapiens) (P28482 whole entry): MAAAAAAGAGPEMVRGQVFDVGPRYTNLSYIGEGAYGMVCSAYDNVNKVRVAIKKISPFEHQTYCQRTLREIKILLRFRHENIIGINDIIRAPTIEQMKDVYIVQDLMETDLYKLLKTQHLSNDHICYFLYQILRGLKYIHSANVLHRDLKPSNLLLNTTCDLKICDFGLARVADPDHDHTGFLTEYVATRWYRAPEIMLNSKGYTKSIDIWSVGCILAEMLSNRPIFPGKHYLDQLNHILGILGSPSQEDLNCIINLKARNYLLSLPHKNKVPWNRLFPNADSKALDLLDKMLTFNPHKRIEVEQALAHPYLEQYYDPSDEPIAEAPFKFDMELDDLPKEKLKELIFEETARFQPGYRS
# Sequence of Mitogen-activated protein kinase 7 (Homo sapiens) (Q13164 2-816 limits assumed): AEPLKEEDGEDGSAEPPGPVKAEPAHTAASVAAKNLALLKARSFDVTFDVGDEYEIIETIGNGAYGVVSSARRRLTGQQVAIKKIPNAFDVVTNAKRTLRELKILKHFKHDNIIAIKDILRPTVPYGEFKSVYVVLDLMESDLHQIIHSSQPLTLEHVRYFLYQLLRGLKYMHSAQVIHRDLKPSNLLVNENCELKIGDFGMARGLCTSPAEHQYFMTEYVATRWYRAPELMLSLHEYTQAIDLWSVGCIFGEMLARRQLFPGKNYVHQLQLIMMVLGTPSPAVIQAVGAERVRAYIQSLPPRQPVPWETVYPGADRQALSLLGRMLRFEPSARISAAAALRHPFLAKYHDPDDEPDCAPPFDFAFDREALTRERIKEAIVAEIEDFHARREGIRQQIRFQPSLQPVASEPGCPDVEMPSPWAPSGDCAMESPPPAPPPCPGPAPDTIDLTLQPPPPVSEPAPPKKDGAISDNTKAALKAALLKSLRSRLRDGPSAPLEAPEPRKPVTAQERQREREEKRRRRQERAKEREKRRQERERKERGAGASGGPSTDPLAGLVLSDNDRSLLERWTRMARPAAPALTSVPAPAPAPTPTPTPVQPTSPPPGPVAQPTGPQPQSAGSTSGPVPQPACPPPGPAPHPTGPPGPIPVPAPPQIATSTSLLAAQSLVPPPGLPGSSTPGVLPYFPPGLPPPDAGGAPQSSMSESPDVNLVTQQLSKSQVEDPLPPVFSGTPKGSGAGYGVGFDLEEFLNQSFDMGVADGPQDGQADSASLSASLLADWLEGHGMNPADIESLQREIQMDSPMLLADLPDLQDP
# Sequence of Mitogen-activated protein kinase 3 (Homo sapiens) (P27361 whole entry): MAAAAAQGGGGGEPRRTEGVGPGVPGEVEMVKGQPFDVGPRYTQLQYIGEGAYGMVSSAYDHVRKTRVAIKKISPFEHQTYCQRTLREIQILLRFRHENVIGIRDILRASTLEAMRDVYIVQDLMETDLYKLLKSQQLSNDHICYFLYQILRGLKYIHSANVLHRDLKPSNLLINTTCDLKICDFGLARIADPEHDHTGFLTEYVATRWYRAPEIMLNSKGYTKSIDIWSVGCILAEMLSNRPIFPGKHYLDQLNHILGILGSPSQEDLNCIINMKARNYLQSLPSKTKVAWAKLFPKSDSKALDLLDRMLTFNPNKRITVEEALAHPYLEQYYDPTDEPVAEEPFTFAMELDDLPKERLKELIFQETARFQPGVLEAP
inhibition [1] [%],inhibition [2] [%],inhibition [3] [%],pIC50 (HL-60),pIC50 (MKN-74),pIC50 (HeLa),SMILES
87.7,89.7,80.5,4.84,4.89,4.33,NC(=O)c1c(NC(=O)c2ccccc2Br)sc2c1CCN(C(=S)Nc1ccccc1Cl)C2
37.3,35.6,38.7,4.97,5.07,< 4.30,NC(=O)c1c(NC(=O)c2ccc(C(F)(F)F)cc2)sc2c1CCN(Cc1c(Cl)cccc1Cl)C2
70.1,68.7,65.7,< 4.30,< 4.30,< 4.30,NC(=O)c1c(NC(=O)c2ccccc2Br)sc2c1CCN(C(=S)Nc1ccccc1F)C2
72.2,76.8,56.8,< 4.30,4.57,< 4.30,NC(=O)c1c(NC(=O)c2ccc(C(F)(F)F)cc2)sc2c1CCN(Cc1ccccc1F)C2
70.4,71.9,53.8,4.84,4.56,4.48,Cc1ccc(C(=O)Nc2sc3c(c2C(N)=O)CCN(C(=O)Nc2ccccc2Cl)C3)cc1
71.3,60.4,65.7,4.73,4.64,< 4.30,NC(=O)c1c(NC(=O)c2cccc([N+](=O)[O-])c2)sc2c1CCN(C(=O)Nc1ccccc1Cl)C2
61.5,64.9,62.7,4.73,4.54,4.35,NC(=O)c1c(NC(=O)c2ccccc2Cl)sc2c1CCNC2
32.2,53.7,52.3,4.70,4.59,< 4.30,Cc1ccc(C(=O)Nc2sc3c(c2C(N)=O)CCN(Cc2ccc(Cl)cc2Cl)C3)cc1
48.4,36.9,21.1,4.99,5.13,4.48,NC(=O)c1c(NC(=O)c2ccccc2F)sc2c1CCN(Cc1c(Cl)cccc1Cl)C2
48.5,45.7,38.5,4.46,4.55,< 4.30,NC(=O)c1c(NC(=O)c2ccncn2)sc2c1CCN(C(=S)Nc1ccccc1Cl)C2
61.4,65.2,65.1,5.54,5.35,4.56,NC(=O)c1c(NC(=O)c2ccccc2Cl)sc2c1CCN(Cc1ccccc1Cl)C2
70.6,65.9,53,4.68,4.96,4.45,Cc1ccccc1C(=O)Nc1sc2c(c1C(N)=O)CCN(C(=S)Nc1ccccc1Cl)C2
31.6,29.3,45.2,4.74,4.87,4.34,NC(=O)c1c(NC(=O)c2cccc([N+](=O)[O-])c2)sc2c1CCN(Cc1c(Cl)cccc1Cl)C2
78.3,77.6,62.2,< 4.30,4.36,< 4.30,NC(=O)c1c(NC(=O)c2ccc(C(F)(F)F)cc2)sc2c1CCN(C(=O)Nc1ccccc1Cl)C2
68.4,72.8,59.3,4.65,4.93,< 4.30,Cc1ccccc1NC(=S)N1CCc2c(sc(NC(=O)c3ccccc3Cl)c2C(N)=O)C1
67.2,63.4,49.1,4.52,5.18,4.46,CSc1ccccc1C(=O)Nc1sc2c(c1C(N)=O)CCN(C(=S)Nc1ccccc1Cl)C2
77.5,80.7,64.8,4.71,4.85,4.31,NC(=O)c1c(NC(=O)c2ccccc2I)sc2c1CCN(C(=S)Nc1ccccc1C(F)(F)F)C2

# The next lines start with the compound.
SMILES,inhibition [1] [%],inhibition [2] [%],inhibition [3] [%],pIC50 (HL-60),pIC50 (MKN-74),pIC50 (HeLa)
COc1ccccc1NC(=S)N1CCc2c(sc(NC(=O)c3ccccc3Cl)c2C(N)=O)C1,71.3,70.6,53.7,4.39,4.45,< 4.30
NC(=O)c1c(NC(=O)c2ccccc2Cl)sc2c1CCN(C(=O)Nc1ccccc1Cl)C2,89.2,88.4,89.9,4.90,4.79,4.34
NC(=O)c1c(NC(=O)c2ccccc2Cl)sc2c1CCN(Cc1ccc(Cl)cc1Cl)C2,68.9,66.6,63.1,5.10,4.79,4.68
NC(=O)c1c(NC(=O)c2ccccc2)sc2c1CCN(C(=S)Nc1ccccc1)C2,65.8,66.3,61.4,< 4.30,< 4.30,< 4.30
NC(=O)c1c(NC(=O)c2ccc(C(F)(F)F)cc2)sc2c1CCN(Cc1ccc(Cl)cc1Cl)C2,39.6,33.2,40,4.83,4.96,< 4.30
COc1ccccc1NC(=S)N1CCc2c(sc(NC(=O)c3ccccc3OC)c2C(N)=O)C1,44.7,48.7,32,< 4.30,< 4.30,< 4.30
NC(=O)c1c(NC(=O)c2ccccc2Cl)sc2c1CCN(C(=S)Nc1ccccc1-c1ccccc1)C2,60.9,64.7,40.5,4.46,4.59,4.60
NC(=O)c1c(NC(=O)c2ccccc2Cl)sc2c1CCN(C(=S)Nc1ccccc1C(F)(F)F)C2,83.6,85.7,76.6,4.97,5.73,4.57
NC(=O)c1c(NC(=O)c2ccccc2Cl)sc2c1CCN(C(=S)Nc1cccc3ccccc13)C2,82.8,81.3,72.5,4.87,4.69,4.51
NC(=O)c1c(NC(=O)c2ccccc2Cl)sc2c1CCN(C(=S)Nc1ccccc1)C2,85.4,76.5,59.5,5.23,4.81,4.33
NC(=O)c1c(NC(=O)c2ccccc2Cl)sc2c1CCN(C(=S)Nc1ccccc1Br)C2,90.9,86.9,88.5,5.04,4.96,4.61
NC(=O)c1c(NC(=O)c2ccccc2F)sc2c1CCN(Cc1ccc(Cl)cc1Cl)C2,55.7,32.4,38,4.88,5.02,4.56
NC(=O)c1c(NC(=O)c2ccccc2F)sc2c1CCN(C(=O)Nc1ccccc1Cl)C2,65,62.4,54.9,4.48,4.30,< 4.30
NC(=O)c1c(NC(=O)c2ccccc2Br)sc2c1CCN(C(=S)Nc1ccccc1C(F)(F)F)C2,79.3,72.1,78.6,4.56,4.61,4.40
NC(=O)c1c(NC(=O)c2cccc([N+](=O)[O-])c2)sc2c1CCN(C(=S)Nc1ccccc1Cl)C2,64.2,58.5,70.7,5.15,5.05,4.39
COc1ccc(NC(=S)N2CCc3c(sc(NC(=O)c4ccccc4Cl)c3C(N)=O)C2)cc1,78.1,68.7,55.7,4.80,4.71,4.44
Cc1ccccc1C(=O)Nc1sc2c(c1C(N)=O)CCN(C(=S)Nc1ccccc1Br)C2,64.7,65.2,54.9,4.34,< 4.30,< 4.30
Cc1ccccc1NC(=S)N1CCc2c(sc(NC(=O)c3ccccc3C(F)(F)F)c2C(N)=O)C1,64.9,62.8,48.3,4.60,4.32,4.33
NC(=O)c1c(NC(=O)c2ccccc2Cl)sc2c1CCN(C(=S)Nc1cccnc1)C2,41.9,45.4,34.9,4.47,4.41,< 4.30
NC(=O)c1c(NC(=O)c2ccccc2Cl)sc2c1CCN(Cc1ccc([N+](=O)[O-])cc1)C2,66.2,63.1,65,4.94,4.50,4.34
NC(=O)c1c(NC(=O)c2ccccc2Cl)sc2c1CCN(Cc1ccc(Cl)cc1)C2,47.4,55.4,47,4.65,4.73,< 4.30
Cc1ccc(C(=O)Nc2sc3c(c2C(N)=O)CCN(Cc2c(Cl)cccc2Cl)C3)cc1,42.8,45.4,46,5.00,4.91,4.32
NC(=O)c1c(NC(=O)c2ccccc2I)sc2c1CCN(C(=S)Nc1ccccc1Cl)C2,83.5,85.8,80.4,5.07,4.76,< 4.30
